Measurements reported in the NIST ThermoML archive (doi:10.1021/acs.jced.5b00892).

Details: Liquid, Gas chromatography

CC/C=C/C=C/CCCCCCCCOC(C)=O [(9E,11E)-tetradeca-9,11-dienyl acetate]
Details	vapor or sublimation pressure [kPa]
298.15 K	1.5e-05
310 K	6.3e-05
320 K	0.00019
330 K	0.00051
340 K	0.0013
350 K	0.0031
360 K	0.007
370 K	0.015
380 K	0.03
390 K	0.058
400 K	0.11
410 K	0.19
420 K	0.33
430 K	0.54
440 K	0.87
450 K	1.4
460 K	2.1
470 K	3
480 K	4.4
490 K	6.2
500 K	8.6

CC/C=C/CCCCCCCCCCOC(C)=O [(E)-tetradec-11-enyl acetate]
Details	vapor or sublimation pressure [kPa]
298.15 K	2.8e-05
310 K	0.00011
320 K	0.00032
330 K	0.00086
340 K	0.0021
350 K	0.0049
360 K	0.011
370 K	0.022
380 K	0.044
390 K	0.084
400 K	0.15
410 K	0.27
420 K	0.45
430 K	0.73
440 K	1.2
450 K	1.8
460 K	2.7
470 K	3.9
480 K	5.6
490 K	7.8
500 K	11

CCC/C=C\CCCCCCCOC(C)=O [(Z)-dodec-8-enyl acetate]
Details	vapor or sublimation pressure [kPa]
298 K	0.00027
310 K	0.00091
320 K	0.0023
330 K	0.0056
340 K	0.013
350 K	0.027
360 K	0.053
370 K	0.1
380 K	0.19
390 K	0.33
400 K	0.56
410 K	0.93
420 K	1.5
430 K	2.3
440 K	3.5
450 K	5.1
460 K	7.3
470 K	10
480 K	14.1
490 K	19
500 K	25

CCCC/C=C\CCCCCCCCCCCCOC(C)=O [(Z)-octadec-13-en-1-yl acetate]
Details	vapor or sublimation pressure [kPa]
298.15 K	4.1e-07
310 K	2.2e-06
320 K	8.2e-06
330 K	2.7e-05
340 K	8.3e-05
350 K	0.00023
360 K	0.00061
370 K	0.0015
380 K	0.0034
390 K	0.0074
400 K	0.015
410 K	0.03
420 K	0.056
430 K	0.1
440 K	0.18
450 K	0.3
460 K	0.48
470 K	0.76
480 K	1.2
490 K	1.7
500 K	2.5

CCCCCCCC/C=C\CCCOC(C)=O [(Z)-tridec-4-enyl acetate]
Details	vapor or sublimation pressure [kPa]
298 K	0.00012
310 K	0.00042
320 K	0.0011
330 K	0.0028
340 K	0.0065
350 K	0.0142
360 K	0.029
370 K	0.058
380 K	0.11
390 K	0.2
400 K	0.34
410 K	0.57
420 K	0.92
430 K	1.5
440 K	2.2
450 K	3.3
460 K	4.8
470 K	6.9
480 K	9.6
490 K	13
500 K	18

CCOC(=O)/C=C(C)/C=C/C[C@@H](C)CCCC(C)C [ethyl (S,2E,4E)-3,7,11-trimethyldodeca-2,4-dienoate]
Details	vapor or sublimation pressure [kPa]
298.15 K	1.4e-05
310 K	5.7e-05
320 K	0.00017
330 K	0.00047
340 K	0.0012
350 K	0.0029
360 K	0.0065
370 K	0.014
380 K	0.028
390 K	0.054
400 K	0.1
410 K	0.18
420 K	0.3
430 K	0.5
440 K	0.81
450 K	1.3
460 K	1.9
470 K	2.8
480 K	4.1
490 K	5.8
500 K	8

C#CCOC(=O)/C=C(C)/C=C/CC(C)CCCC(C)C (configuration not stated) [prop-2-ynyl (2E,4E)-3,7,11-trimethyldodeca-2,4-dienoate]
Details	vapor or sublimation pressure [kPa]
298.15 K	4.2e-06
310 K	1.9e-05
320 K	6.1e-05
330 K	0.00018
340 K	0.00049
350 K	0.0012
360 K	0.0029
370 K	0.0065
380 K	0.014
390 K	0.028
400 K	0.053
410 K	0.098
420 K	0.17
430 K	0.29
440 K	0.49
450 K	0.78
460 K	1.2
470 K	1.8
480 K	2.7
490 K	3.9
500 K	5.5
